Data taken from patent publication US11034672B1, “Tyrosine kinase inhibitor compositions, methods of making and methods of use” (Black Diamond Therapeutics, Inc., priority 2018, dated 2021).

Columns and labels:
EGFR WT [1] = molecular target: T1, EGFR WT (Homo sapiens, UniProt P00533); assay: BaF3 cell proliferation assay, EGFR WT (Table A); assay type: cell-based; details: potency code, 3 days, CellTiterGlo, read-out: EGFR WT (Activity for Inhibiting EGFR)
Method in brief: (§1)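 BaF3 cells were infected twice with retrovirus carrying the mutant (pMXs-IRES-Blasticidin, 8 μg/ml polybrene, spinoculation), then selected in 10 μg/ml blasticidin for one week. Resistant pools were then grown without IL-3 to select for IL-3-independent growth. EC50 values were derived from proliferation.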

HER2 S310F [2] = molecular target: T2, HER2 S310F (Homo sapiens, UniProt P04626, S310F); assay: BaF3 cell proliferation assay, HER2 S310F (Table B); assay type: cell-based; details: potency code, 3 days, CellTiterGlo, read-out: HER2 S310F (Activity for Inhibiting HER2)
T2 construct: expressed in transfected cells; host or cells: BaF3 (murine pro-B)
T2 sequence (P04626 23-1255 S310F): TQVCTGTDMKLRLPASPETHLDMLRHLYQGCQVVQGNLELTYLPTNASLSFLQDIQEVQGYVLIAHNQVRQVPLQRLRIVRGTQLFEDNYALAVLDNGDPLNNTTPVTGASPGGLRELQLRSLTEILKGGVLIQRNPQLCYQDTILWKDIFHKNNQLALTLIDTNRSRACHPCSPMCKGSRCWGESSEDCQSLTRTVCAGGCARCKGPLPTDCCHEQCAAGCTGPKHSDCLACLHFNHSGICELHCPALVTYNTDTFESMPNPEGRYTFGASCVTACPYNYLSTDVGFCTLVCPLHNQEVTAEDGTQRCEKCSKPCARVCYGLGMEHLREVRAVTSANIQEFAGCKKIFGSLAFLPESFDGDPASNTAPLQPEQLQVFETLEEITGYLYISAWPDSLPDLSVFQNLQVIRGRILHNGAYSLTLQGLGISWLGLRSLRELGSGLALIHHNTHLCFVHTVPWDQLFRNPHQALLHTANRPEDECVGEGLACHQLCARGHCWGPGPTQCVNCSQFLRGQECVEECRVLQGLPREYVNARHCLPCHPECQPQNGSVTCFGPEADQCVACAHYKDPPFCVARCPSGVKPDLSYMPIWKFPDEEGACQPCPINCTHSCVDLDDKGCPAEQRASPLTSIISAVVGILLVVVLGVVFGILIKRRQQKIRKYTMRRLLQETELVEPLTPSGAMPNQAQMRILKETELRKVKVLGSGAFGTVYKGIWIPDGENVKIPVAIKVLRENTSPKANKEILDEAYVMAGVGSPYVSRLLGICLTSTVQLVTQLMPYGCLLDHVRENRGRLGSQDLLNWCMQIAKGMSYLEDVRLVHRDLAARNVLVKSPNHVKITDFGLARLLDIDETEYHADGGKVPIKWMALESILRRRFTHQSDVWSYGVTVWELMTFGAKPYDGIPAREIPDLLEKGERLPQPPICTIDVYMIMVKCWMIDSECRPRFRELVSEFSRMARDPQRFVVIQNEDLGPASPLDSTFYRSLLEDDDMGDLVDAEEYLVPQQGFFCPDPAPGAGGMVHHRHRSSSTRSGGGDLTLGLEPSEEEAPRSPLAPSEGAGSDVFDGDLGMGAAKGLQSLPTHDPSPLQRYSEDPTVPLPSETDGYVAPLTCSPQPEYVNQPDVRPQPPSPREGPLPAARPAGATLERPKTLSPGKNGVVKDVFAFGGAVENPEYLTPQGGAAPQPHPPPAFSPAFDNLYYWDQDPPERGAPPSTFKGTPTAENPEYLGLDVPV

EGFR WT [3] = molecular target: T1, EGFR WT; assay: Activity for inhibiting EGFR (Table A), EGFR WT; assay type: cell-based; details: read-out: EGFR WT, potency code (IC50)
EGFR SVD [4] = molecular target: T3, EGFR SVD (Homo sapiens, UniProt P00533, DUP768-770); assay: BaF3 cell proliferation assay, EGFR SVD (Table A); assay type: cell-based; details: potency code, 3 days, CellTiterGlo, read-out: EGFR SVD (Activity for Inhibiting EGFR)
T3 construct: expressed in transfected cells; host or cells: BaF3 (murine pro-B), retroviral pMXs-IRES-Blasticidin
T3 sequence (P00533 with tags, fused parts or gaps DUP768-770): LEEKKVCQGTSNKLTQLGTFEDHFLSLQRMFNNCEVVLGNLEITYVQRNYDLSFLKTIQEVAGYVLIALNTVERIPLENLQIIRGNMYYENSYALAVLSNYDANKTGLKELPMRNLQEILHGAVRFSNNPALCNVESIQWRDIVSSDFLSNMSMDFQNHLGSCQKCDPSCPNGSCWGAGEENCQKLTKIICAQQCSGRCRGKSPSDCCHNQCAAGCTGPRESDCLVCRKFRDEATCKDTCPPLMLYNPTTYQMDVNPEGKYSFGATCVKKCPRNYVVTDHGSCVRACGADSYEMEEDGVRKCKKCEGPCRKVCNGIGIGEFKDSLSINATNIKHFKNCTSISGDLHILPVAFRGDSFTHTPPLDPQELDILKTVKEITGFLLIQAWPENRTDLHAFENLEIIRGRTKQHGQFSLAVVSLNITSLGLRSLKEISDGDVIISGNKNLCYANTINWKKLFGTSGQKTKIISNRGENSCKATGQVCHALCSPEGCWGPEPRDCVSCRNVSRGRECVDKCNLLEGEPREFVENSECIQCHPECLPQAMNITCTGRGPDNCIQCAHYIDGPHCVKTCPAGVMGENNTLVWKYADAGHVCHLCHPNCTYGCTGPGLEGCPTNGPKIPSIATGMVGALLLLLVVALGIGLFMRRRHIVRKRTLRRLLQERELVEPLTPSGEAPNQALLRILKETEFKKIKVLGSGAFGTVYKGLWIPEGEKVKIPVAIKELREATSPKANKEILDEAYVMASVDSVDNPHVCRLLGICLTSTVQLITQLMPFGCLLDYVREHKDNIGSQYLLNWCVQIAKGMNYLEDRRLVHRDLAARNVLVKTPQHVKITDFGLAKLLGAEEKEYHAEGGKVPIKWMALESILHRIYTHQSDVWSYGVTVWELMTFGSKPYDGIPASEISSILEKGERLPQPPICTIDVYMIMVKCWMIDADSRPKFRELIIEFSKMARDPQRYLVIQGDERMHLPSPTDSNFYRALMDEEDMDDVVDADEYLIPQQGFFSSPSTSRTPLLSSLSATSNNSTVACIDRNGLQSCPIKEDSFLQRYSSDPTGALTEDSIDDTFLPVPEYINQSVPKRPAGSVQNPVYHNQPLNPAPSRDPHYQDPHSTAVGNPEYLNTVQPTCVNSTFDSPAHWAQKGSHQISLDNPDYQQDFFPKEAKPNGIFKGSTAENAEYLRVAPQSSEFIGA
Method in brief: as §1

HER2 YVMA [5] = molecular target: T4, HER2 YVMA (Homo sapiens, UniProt P04626, INS775YVMA); assay: BaF3 cell proliferation assay, HER2 YVMA (Table B); assay type: cell-based; details: potency code, 3 days, CellTiterGlo, read-out: HER2 YVMA (Activity for Inhibiting HER2)
T4 construct: expressed in transfected cells; host or cells: BaF3 (murine pro-B)

HER2 YVMA [6] = molecular target: T4, HER2 YVMA; assay: Activity for inhibiting HER2 (Table B), HER2 YVMA; assay type: cell-based; details: read-out: HER2 YVMA, potency code (IC50)
Procedure: (§2) EC50 values were determined with the same application.

EGFR NPH [7] = molecular target: T5, EGFR NPH (Homo sapiens, UniProt P00533, DUP771-773); assay: BaF3 cell proliferation assay, EGFR NPH (Table A); assay type: cell-based; details: potency code, 3 days, CellTiterGlo, read-out: EGFR NPH (Activity for Inhibiting EGFR)
T5 construct: expressed in transfected cells; host or cells: BaF3 (murine pro-B), retroviral pMXs-IRES-Blasticidin
T5 sequence (P00533 with tags, fused parts or gaps DUP771-773): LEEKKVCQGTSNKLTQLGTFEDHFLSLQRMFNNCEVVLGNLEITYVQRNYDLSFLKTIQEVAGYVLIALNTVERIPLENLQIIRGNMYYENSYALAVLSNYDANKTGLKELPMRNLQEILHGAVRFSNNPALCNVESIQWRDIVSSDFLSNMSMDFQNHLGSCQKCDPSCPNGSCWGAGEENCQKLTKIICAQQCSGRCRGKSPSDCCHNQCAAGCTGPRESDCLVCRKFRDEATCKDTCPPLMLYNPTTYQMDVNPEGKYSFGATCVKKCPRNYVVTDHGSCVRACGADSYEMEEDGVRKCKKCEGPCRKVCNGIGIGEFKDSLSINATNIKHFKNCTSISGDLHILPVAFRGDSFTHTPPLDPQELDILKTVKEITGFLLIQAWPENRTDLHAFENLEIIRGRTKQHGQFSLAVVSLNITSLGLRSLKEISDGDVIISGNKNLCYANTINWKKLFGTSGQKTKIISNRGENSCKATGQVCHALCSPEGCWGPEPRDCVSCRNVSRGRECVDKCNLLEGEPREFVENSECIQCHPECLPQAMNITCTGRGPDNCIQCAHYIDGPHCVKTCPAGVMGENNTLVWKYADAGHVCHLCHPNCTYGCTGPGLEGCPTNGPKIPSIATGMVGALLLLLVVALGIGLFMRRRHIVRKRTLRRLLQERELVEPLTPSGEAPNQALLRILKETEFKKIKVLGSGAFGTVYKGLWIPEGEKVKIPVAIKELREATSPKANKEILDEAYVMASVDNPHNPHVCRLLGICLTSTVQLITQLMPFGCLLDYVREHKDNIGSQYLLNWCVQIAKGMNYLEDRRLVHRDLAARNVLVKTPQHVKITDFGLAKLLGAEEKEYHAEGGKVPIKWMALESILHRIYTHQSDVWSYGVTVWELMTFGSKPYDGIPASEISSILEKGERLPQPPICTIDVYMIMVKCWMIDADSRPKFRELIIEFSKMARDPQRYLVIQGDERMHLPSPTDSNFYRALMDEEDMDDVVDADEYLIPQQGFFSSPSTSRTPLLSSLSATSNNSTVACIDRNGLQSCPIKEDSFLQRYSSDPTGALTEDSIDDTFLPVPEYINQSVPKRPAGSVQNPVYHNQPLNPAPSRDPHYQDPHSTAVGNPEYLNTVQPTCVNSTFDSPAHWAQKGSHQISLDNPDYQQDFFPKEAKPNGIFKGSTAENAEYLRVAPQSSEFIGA
Method in brief: as §1

EGFR NPH [8] = molecular target: T5, EGFR NPH; assay: Activity for inhibiting EGFR (Table A), EGFR NPH; assay type: cell-based; details: read-out: EGFR NPH, potency code (IC50)
EGFR V3 [9] = molecular target: T6, EGFR V3 (Homo sapiens, UniProt P00533, DELINS30-297G); assay: BaF3 cell proliferation assay, EGFR V3 (Table A); assay type: cell-based; details: potency code, 3 days, CellTiterGlo, read-out: EGFR V3 (Activity for Inhibiting EGFR)
T6 construct: expressed in transfected cells; host or cells: BaF3 (murine pro-B), retroviral pMXs-IRES-Blasticidin
T6 sequence (P00533 with tags, fused parts or gaps DELINS30-297G): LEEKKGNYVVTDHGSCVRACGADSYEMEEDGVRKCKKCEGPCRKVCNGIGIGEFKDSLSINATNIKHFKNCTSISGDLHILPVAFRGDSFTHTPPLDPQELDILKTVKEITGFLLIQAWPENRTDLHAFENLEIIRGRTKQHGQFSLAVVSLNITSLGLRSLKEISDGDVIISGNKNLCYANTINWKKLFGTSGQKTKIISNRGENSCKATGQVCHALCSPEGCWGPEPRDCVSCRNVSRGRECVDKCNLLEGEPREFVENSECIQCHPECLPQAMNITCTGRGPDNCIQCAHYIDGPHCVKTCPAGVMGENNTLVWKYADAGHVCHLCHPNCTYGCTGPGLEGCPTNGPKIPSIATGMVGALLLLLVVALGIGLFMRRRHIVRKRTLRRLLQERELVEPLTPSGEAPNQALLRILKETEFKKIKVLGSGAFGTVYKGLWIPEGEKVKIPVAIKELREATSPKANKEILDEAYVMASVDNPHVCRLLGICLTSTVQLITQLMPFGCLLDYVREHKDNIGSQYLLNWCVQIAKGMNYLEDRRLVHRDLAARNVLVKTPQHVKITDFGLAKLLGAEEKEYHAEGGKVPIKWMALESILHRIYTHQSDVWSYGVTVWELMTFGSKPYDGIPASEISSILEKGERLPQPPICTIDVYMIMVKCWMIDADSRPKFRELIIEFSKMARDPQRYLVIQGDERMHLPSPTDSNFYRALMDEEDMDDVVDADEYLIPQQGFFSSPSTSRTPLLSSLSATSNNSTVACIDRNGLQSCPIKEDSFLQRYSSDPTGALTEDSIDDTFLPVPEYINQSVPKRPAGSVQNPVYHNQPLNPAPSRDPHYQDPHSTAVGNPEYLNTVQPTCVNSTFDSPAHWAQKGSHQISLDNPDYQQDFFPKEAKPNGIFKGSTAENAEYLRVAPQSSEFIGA
Method in brief: as §1

EGFR SVD [10] = molecular target: T3, EGFR SVD; assay: Activity for inhibiting EGFR (Table A), EGFR SVD; assay type: cell-based; details: read-out: EGFR SVD, potency code (IC50)
HER2 WT [11] = molecular target: T7, HER2 WT (Homo sapiens, UniProt P04626); assay: Activity for inhibiting HER2 (Table B), HER2 WT; assay type: cell-based
EGFR V3 [12] = molecular target: T6, EGFR V3; assay: Activity for inhibiting EGFR (Table A), EGFR V3 (EGFR-Viii); assay type: cell-based; details: read-out: EGFR V3, potency code (IC50)
HER2 S310F [13] = molecular target: T2, HER2 S310F; assay: Activity for inhibiting HER2 (Table B), HER2 S310F; assay type: cell-based; details: read-out: HER2 S310F, potency code (IC50)
Procedure: as §2

Her2 S310F BaF3 tumors = assay: Tumor growth in athymic nude mice bearing Her2 S310F BaF3 tumors; assay type: in vivo; details: for Tumor response: FIG. 28
Procedure: Tumor size was measured for each dosing schedule, and analyzed to assess regression. […] The effect was further confirmed in the dose-dependent experiment.
A mouse tumor model containing mutant Her2 was used to test the ability of Compound No. 26 to inhibit tumor growth and induce tumor regression in vivo. Athymic nude mice from Charles River Labs bearing Her2 S310F BaF3 tumors were treated with Compound No. 26 either at 15 mg/kg once per day (QD), 7.5 mg/kg twice per day (BID), and 15 mg/kg twice per day (BID). Tumor size was measured for each dosing condition and analyzed to assess regression. […] The effect was further confirmed in mice dosed at 15 mg/kg once per day (QD), 7.5 mg/kg twice per day (BID), and 15 mg/kg twice per day (BID). In addition to assessing tumor size in these groups, plasma was collected from dosed individuals at 2 and 5 hours following each treatment. Compound No. 26 levels were measured in the plasma samples to determine pharmacokinetic profiles that may influence tumor response.
Tumor size was measured and analyzed to assess the effect on tumor growth and regression.
A mouse tumor model containing mutant Her2 was used to test the ability of Compound No. 6 to inhibit tumor growth and induce tumor regression in vivo. Athymic nude mice from Charles River Labs bearing Her2 S310F BaF3 tumors were treated with Compound No. 6 at 30 mg/kg once per day (QD) for 10 days. Tumor size was measured and analyzed to assess the effect on tumor growth and regression.

HER2 WT [14] = molecular target: T7, HER2 WT; assay: BaF3 cell proliferation assay, HER2 WT (Table B); assay type: cell-based; details: potency code, 3 days, CellTiterGlo, read-out: HER2 WT (Activity for Inhibiting HER2)
[15] = Table B, read-out: HER2 WT, potency code (IC50)
[16] = text lists of compounds, read-out: IC50 value for inhibiting wild-type HER2
[17] = 50 mg/kg once per day for 10 days

Structure (SMILES) | IC50 (EGFR WT [1]) | IC50 (HER2 S310F [2]) | IC50 (EGFR WT [3]) | IC50 (EGFR SVD [4]) | IC50 (HER2 YVMA [5]) | IC50 (HER2 YVMA [6]) | IC50 (EGFR NPH [7]) | IC50 (EGFR NPH [8]) | IC50 (EGFR V3 [9]) | IC50 (EGFR SVD [10]) | IC50 (HER2 WT [11]; [15]) | IC50 (HER2 WT [11]; [16]) | IC50 (EGFR V3 [12]) | IC50 (HER2 S310F [13]) | IC50 (HER2 WT [14]) | Tumor volume (Her2 S310F BaF3 tumors; [17]) | further results
C=CC(=O)Nc1cc2c(Nc3ccc(OCc4ccccn4)c(Cl)c3)ncnc2cc1C#C[C@@H]1[C@H]2CN(C)C[C@@H]12 [compound 26] | 300 to 500 nM | 5 to 10 nM | 300 to 500 nM | 30 to 50 nM | 30 to 50 nM | 30 to 50 nM | 30 to 50 nM | 30 to 50 nM | 30 to 50 nM | 30 to 50 nM | 5 to 10 nM | ≤ 10 nM | 30 to 50 nM | 5 to 10 nM | 5 to 10 nM | – | Tumor response (Her2 S310F BaF3 tumors; 7.5 mg/kg twice per day (BID)): definite tumor growth inhibition properties; Tumor response (Her2 S310F BaF3 tumors; 15 mg/kg BID): definite tumor regressive properties; Tumor volume over the time course (Her2 S310F BaF3 tumors; 15 mg/kg QD, 7.5 mg/kg BID, 15 mg/kg BID, FIG. 27): did not increase; Tumor response (Her2 S310F BaF3 tumors; 15 mg/kg once per day (QD)): definite tumor growth inhibition properties
C=CC(=O)Nc1cc2c(Nc3ccc(OCc4ccccn4)c(Cl)c3)ncnc2cc1OCCN1CCOCC1 [compound 8] | 300 to 500 nM | 10 to 20 nM | 300 to 500 nM | 20 to 30 nM | 50 to 100 nM | 50 to 100 nM | 30 to 50 nM | 30 to 50 nM | 20 to 30 nM | 20 to 30 nM | 5 to 10 nM | ≤ 10 nM | 20 to 30 nM | 10 to 20 nM | 5 to 10 nM | decreased | Tumor regression, dose-dependent experiment (Her2 S310F BaF3 tumors; 15 mg/kg to 100 mg/kg once per day (QD) for 10 days, FIG. 26 right panel): regressed in a Compound No. 8 dose-dependent manner
CC#CC(=O)Nc1cc2c(Nc3ccc(OCc4ccccn4)c(Cl)c3)ncnc2cc1OCCN1CCOCC1 [compound 5] | 30 to 50 nM | < 5 nM | 30 to 50 nM | 10 to 20 nM | 5 to 10 nM | 5 to 10 nM | 30 to 50 nM | 30 to 50 nM | 10 to 20 nM | 10 to 20 nM | < 5 nM | ≤ 5 nM | 10 to 20 nM | < 5 nM | < 5 nM | – | –
C=CC(=O)Nc1cc2c(Nc3cc(Cl)c(OCc4cccc(F)c4)cc3F)ncnc2cc1OCCN1CCOCC1 [compound 6] | 200 to 300 nM | 10 to 20 nM | 200 to 300 nM | – | 50 to 100 nM | 50 to 100 nM | – | – | 20 to 30 nM | – | 5 to 10 nM | ≤ 10 nM | 20 to 30 nM | 10 to 20 nM | 5 to 10 nM | – | Tumor volume (Her2 S310F BaF3 tumors; 30 mg/kg once per day (QD) for 10 days, FIG. 30): decreased
C=CC(=O)Nc1cc2c(Nc3ccc(OCc4ccccn4)c(Cl)c3)ncnc2cc1OCCCN1CCOCC1 [compound 21] | 500 to 1000 nM | 5 to 10 nM | 500 to 1000 nM | 10 to 20 nM | 20 to 30 nM | 20 to 30 nM | 10 to 20 nM | 10 to 20 nM | 20 to 30 nM | 10 to 20 nM | < 5 nM | ≤ 10 nM | 20 to 30 nM | 5 to 10 nM | < 5 nM | did not increase over the same timeframe and showed moderate reduction in volume | –
